Where two headings read alike, the source gives them in different places.
Tests used:
[1] = biological target: T1, NMDAR2A (Homo sapiens, UniProt Q12879); assay: [3H]MK-801 binding, NMDAR2A expressing HEK cell membranes; assay type: biochemical; conditions: for Emax: read-out: NMDAR2A A: % maximal [3H]MK-801 binding relative to 1 mM glycine
T1 construct: expressed in transfected cells; host or cells: HEK cells (membrane extract)
Experimental: (§1) Assays were conducted as described by Moskal et al., “GLYX-13: a monoclonal antibody-derived peptide that acts as an N-methyl-D-aspartate receptor modulator,” Neuropharmacology, 49, 1077-87, 2005. These studies were designed to determine if the test compounds act to facilitate NMDAR activation in NMDAR2A, NMDAR2B, NMDAR2C or NMDAR2D expressing HEK cell membranes as measured by increases in [^3H]MK-801 binding.
(§2) In the assay, 300 μg of NMDAR expressing HEK cell membrane extract protein was preincubated for 15 minutes at 25° C. in the presence of saturating concentrations of glutamate (50 μM) and varying concentrations of test compound (1×10^−15M−1×10^−7M), or 1 mM glycine. Following the addition of 0.3 μCi of [^3H]MK-801 (22.5 Ci/mmol), reactions were again incubated for 15 minutes at 25° C. (nonequilibrium conditions). Bound and free [^3H]MK-801 were separated via rapid filtration using a Brandel apparatus.
(§3) In analyzing the data, the DPM (disintegrations per minute) of [^3H]MK-801 remaining on the filter were measured for each concentration of test compound or for 1 mM glycine. The DPM values for each concentration of a ligand (N=2) were averaged. The baseline value was determined from the best fit curve of the DPM values modeled using the GraphPad program and the log(agonist) vs. response(three parameters) algorithm was then subtracted from all points in the dataset. The % maximal [^3H]MK-801 binding was then calculated relative to that of 1 mM glycine: all baseline subtracted DPM values were divided by the average value for 1 mM glycine. The EC50 and % maximal activity were then obtained from the best fit curve of the % maximal [^3H]MK-801 binding data modelled using the GraphPad program and the log(agonist) vs. response(three parameters) algorithm.
(§4) The tables below summarize the results for the wild type NMDAR agonists NMDAR2A, NMDAR2B, NMDAR2C, and NMDAR2D, and whether the compound is not an agonist (−), is an agonist (+), or is a strong agonist (++), where column A is based on the % maximal [^3H]MK-801 binding relative to 1 mM glycine (−=0; <100%=+; and >100%=++); and column B is based on log EC50 values (0=−; ≥1×10^−9M (e.g., −8)=+; and <1×10^−9M (e.g., −10)=++).

[2] = biological target: T2, NMDAR2B (Homo sapiens, UniProt Q13224); assay: [3H]MK-801 binding, NMDAR2B expressing HEK cell membranes; assay type: biochemical; conditions: for Emax: read-out: NMDAR2B A: % maximal [3H]MK-801 binding relative to 1 mM glycine
T2 construct: expressed in transfected cells; host or cells: HEK cells (membrane extract)
Experimental: as §1, §2, §3, §4

[3] = IV pharmacokinetics; assay type: in vivo, Sprague Dawley rats; conditions: Sprague Dawley, rat, in vivo, iv, 2 mg/kg, normal saline (compounds marked * in 1% NMP and 99% normal saline); for C0: read-out: C0; for Vd: read-out: Vss
Excerpt: The table below summarizes the results of the IV pharmacokinetics.

[4] = Oral pharmacokinetics (plasma, brain, CSF); conditions: rat, 10 mg/kg, per os; for bioavailability / AUC(0-t) / Cmax / Tmax: Sprague Dawley, plasma, po; for bioavailability: % F; for AUC(0-t): AUClast; for AUC(0-t) / Cmax / Tmax: normal saline (compounds marked * in 1% NMP and 99% normal saline)
Experimental: Plasma, brain, and CSF samples were analyzed at various time points over a 24 hour period.

[5] = system: rats' response (reduced floating time); assay: Porsolt forced swim test; assay type: in vivo, Sprague Dawley rats; conditions: for % reduction in float time: relative to vehicle group
Experimental: A non-clinical in vivo pharmacology study (Porsolt assay) was performed to measure antidepressant-like effects. A negative control (0.5% sodium carboxymethyl cellulose in 0.9% sterile saline vehicle) and a positive control (fluoxetine) are shown for comparison against test compound. The study allowed for the evaluation of the effects of each compound on the Porsolt forced swim test as assessed by the rats' response (reduced floating time) during a 5-minute swimming test.
Male 2-3 month old Sprague Dawley rats were used (Harlan, Indianapolis, Ind.). Rats were housed in Lucite cages with aspen wood chip bedding, maintained on a 12:12 light:dark cycle (lights on at 5 AM), and given ad libitum access to Purina lab chow (USA) and tap water throughout the study.
The Porsolt forced swim test adapted for use in rats was performed as described by Burgdorf et al., (The long-lasting antidepressant effects of rapastinel (GLYX-13) are associated with a metaplasticity process in the medial prefrontal cortex and hippocampus. Neuroscience 308:202-211, 2015). Animals were placed in a 46 cm tall×20 cm in diameter clear glass tube filled to 30 cm with tap water (23±1° C.) for 15 min on the first day (habituation) and 5 min on the subsequent test day. Positive control fluoxetine was dosed 3 times (24 h, 5 h and 1 h) prior to testing. Animals were tested 1 h post-dosing with the test compounds or vehicle. Animals received a 15 min habituation session 1 day before the 5 min test. A subset of compounds tested at 1 h post-dosing were retested at 1 wk post-dosing in the same sets of animals. Water was changed after every other animal. Animals were videotaped, and floating time as defined as the minimal amount of effort required to keep the animals head above water was scored offline by a blinded experimenter with high inter-rater reliability (Pearson's r>0.9).
Each compound tested at dose level shown. Significance vs. vehicle group for each experiment is marked. […] A compound marked “No” was not statistically significant from vehicle. Data was averaged for test compound and vehicle groups (N approximately 8 per group) and the percent reduction in floating for group treated with test compound relative to group treated with vehicle is shown.

[6] = 50 μM glutamate, read-out: NMDAR2A B: log EC50 (converted)
[7] = 50 μM glutamate, read-out: NMDAR2B B: log EC50 (converted)
[8] = 1 wk post-dose, 0.1 mg/kg, 0.1 mg/kg
[9] = 1 wk post-dose, 0.1 mg/kg, Yes = p<=0.05 from vehicle
[10] = 1 h post-dose, 0.1 mg/kg, 0.1 mg/kg
[11] = 1 h post-dose, 0.1 mg/kg, Yes = p<=0.05 from vehicle

T1 sequence (Q12879 23-1464, species assumed, other chains not shown): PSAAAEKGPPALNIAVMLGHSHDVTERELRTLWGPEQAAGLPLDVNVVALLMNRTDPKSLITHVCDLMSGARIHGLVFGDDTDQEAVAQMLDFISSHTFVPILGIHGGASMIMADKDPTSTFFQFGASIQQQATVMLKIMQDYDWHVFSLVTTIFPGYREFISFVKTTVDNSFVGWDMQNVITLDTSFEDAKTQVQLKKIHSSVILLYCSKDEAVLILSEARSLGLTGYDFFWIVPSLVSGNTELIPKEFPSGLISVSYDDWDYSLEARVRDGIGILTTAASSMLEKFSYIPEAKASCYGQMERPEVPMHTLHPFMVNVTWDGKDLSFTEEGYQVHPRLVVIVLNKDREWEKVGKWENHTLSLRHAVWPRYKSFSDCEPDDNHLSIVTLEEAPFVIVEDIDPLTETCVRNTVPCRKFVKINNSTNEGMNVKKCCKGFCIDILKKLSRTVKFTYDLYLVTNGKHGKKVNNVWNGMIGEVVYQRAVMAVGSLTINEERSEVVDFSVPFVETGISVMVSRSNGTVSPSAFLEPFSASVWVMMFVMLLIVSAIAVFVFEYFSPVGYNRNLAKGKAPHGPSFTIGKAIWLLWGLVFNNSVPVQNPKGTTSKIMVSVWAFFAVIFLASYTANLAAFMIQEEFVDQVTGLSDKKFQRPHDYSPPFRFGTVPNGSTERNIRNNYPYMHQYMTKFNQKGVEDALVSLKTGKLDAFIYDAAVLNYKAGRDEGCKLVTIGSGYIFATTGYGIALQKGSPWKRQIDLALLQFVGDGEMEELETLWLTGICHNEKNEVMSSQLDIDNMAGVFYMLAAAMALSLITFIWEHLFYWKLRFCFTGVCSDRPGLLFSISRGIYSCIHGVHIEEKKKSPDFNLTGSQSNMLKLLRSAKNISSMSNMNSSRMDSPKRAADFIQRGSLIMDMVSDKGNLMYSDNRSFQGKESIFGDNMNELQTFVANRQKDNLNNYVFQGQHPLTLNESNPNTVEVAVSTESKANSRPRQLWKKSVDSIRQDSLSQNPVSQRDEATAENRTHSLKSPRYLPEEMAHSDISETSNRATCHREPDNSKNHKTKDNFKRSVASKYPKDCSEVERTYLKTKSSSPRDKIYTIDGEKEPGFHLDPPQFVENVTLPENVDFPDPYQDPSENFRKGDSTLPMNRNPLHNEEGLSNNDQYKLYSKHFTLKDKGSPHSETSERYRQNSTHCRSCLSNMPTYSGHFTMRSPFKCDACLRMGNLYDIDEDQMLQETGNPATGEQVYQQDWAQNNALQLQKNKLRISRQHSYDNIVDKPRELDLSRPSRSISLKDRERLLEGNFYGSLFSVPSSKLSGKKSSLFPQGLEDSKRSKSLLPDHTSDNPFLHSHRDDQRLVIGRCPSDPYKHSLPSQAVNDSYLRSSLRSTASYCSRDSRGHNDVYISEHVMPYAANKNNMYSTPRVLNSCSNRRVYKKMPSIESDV
T2 sequence (Q13224 27-1484, species assumed, other chains not shown): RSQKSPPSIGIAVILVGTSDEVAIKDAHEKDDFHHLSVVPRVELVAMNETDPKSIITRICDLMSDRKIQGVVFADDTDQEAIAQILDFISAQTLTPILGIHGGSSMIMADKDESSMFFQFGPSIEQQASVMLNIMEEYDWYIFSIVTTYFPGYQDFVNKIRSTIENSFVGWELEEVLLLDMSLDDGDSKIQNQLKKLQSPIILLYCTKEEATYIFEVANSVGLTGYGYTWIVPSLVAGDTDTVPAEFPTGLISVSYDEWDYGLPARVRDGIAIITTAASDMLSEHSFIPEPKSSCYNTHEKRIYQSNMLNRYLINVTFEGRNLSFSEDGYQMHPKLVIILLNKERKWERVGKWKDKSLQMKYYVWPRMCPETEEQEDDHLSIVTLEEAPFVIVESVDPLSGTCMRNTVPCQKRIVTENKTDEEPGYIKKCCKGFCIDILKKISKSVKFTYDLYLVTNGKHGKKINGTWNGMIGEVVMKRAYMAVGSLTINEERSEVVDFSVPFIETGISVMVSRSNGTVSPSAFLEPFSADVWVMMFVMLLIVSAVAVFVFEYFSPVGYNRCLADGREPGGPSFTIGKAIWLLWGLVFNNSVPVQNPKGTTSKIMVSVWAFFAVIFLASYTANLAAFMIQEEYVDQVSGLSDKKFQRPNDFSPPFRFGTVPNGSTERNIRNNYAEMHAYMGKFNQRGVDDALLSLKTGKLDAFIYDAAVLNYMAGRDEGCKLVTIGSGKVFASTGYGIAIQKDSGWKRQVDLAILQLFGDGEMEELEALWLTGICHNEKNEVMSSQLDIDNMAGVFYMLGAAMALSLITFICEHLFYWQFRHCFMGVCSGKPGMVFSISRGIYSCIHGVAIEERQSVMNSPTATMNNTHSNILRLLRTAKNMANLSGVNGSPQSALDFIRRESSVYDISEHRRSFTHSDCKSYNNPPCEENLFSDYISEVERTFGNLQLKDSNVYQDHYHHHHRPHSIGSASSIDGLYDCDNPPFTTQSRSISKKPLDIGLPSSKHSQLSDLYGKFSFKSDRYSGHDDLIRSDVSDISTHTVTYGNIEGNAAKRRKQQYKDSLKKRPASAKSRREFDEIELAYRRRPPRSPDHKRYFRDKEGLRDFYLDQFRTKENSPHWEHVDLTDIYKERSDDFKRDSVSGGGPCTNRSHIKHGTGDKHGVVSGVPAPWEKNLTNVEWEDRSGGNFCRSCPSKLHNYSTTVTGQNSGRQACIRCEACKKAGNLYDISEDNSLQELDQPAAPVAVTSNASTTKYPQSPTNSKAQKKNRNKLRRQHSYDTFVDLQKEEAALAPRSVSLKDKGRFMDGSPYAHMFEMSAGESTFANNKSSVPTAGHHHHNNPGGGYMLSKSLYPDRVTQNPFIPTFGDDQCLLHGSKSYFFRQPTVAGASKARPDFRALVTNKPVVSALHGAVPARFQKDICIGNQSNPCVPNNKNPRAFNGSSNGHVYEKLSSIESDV

SMILES | NMDAR2A A: % maximal [3H]MK-801 binding relative to 1 mM glycine ([1]; 50 μM glutamate) | NMDAR2B A: % maximal [3H]MK-801 binding relative to 1 mM glycine ([2]; 50 μM glutamate) | EC50 [1, 6] [nM] | EC50 [2, 7] [nM] | AUC(0-t) [3] [ng·h/mL] | clearance [3] [mL/min/kg] | half-life [3] [min] | C0 [3] [ng/mL] | Vd [3] [L/kg] | bioavailability [4] [%] | AUC(0-t) [4] [ng·h/mL] | Cmax [4] [ng/mL] | Tmax [4] [min] | further results
O=C1NCC12CN(Cc1ccccc1)CCN2Cc1ccccc1 (single isomer, unassigned) [EA-2, 5,8-Dibenzyl-2,5,8-Triazaspiro[3.5]Nonan-1-One] | − (−=0) | − (−=0) | – | – | – | – | – | – | – | – | – | – | – | –
CC(C)(C)OC(=O)N1CCNC2(CCNC2=O)C1 (single isomer, unassigned) [EM, Tert-Butyl 1-Oxo-2,6,9-Triazaspiro[4.5]Decane-9-Carboxylate] | + (<100%=+) | ++ (>100%=++) | < 1 | > 1 | – | – | – | – | – | – | – | – | – | –
CC(C)(C)OC(=O)N1CCNC2(CCNC2=O)C1 (single isomer, unassigned) [EN, Tert-Butyl 1-Oxo-2,6,9-Triazaspiro[4.5]Decane-9-Carboxylate] | − (−=0) | − (−=0) | – | – | – | – | – | – | – | – | – | – | – | –
CC(C)(C)OC(=O)N1CCNC2(C1)CN(CC(N)=O)C2=O (stereo not drawn) [ER-141] | − (−=0) | + (<100%=+) | – | < 1 | 1670 | 19.9 | 33 | 4280 | 0.7 | 31 | 2620 | 962 | 49.8 | CSF Cmax [4]: 42 ng/mL
CC(C)(C)OC(=O)N1CCNC2(C1)CN(CC(N)=O)C2=O (stereo not drawn) [ER-142] | + (<100%=+) | − (−=0) | < 1 | – | – | – | – | – | – | – | – | – | – | –
O=C1NCCC12CNCCN2 (stereo not drawn) [ES-301] | – | – | – | < 1 | – | – | – | – | – | – | – | – | – | Emax ([1]; 50 μM glutamate): 0%; Emax ([2]; 50 μM glutamate): < 100%
O=C1NCCC12CNCCN2 (stereo not drawn) [ES-302] | − (−=0) | ++ (>100%=++) | – | < 1 | 1720 | 18.9 | 142 | 6090 | 1.33 | 12 | 1040 | 340 | 49.8 | –
CN1CCN(Cc2ccccc2)C2(CCNC2=O)C1 (stereo not drawn) [ES-315] | – | – | < 1 | < 1 | – | – | – | – | – | – | – | – | – | Emax ([1]; 50 μM glutamate): < 100%; Emax ([2]; 50 μM glutamate): < 100%; % reduction in float time [5, 8]: 25.0%; Significance vs. vehicle [5, 9]: No; % reduction in float time [5, 10]: 44.1%; Significance vs. vehicle [5, 11]: Yes
CN1CCN(Cc2ccccc2)C2(CCNC2=O)C1 (stereo not drawn) [ES-316] | + (<100%=+) | + (<100%=+) | – | – | 1110 | 30.6 | 138 | 2090 | 1.75 | 55 | 3030 | 2770 | 15 | EC50 ([1]; read-out: NMDAR2A B: log EC50 (converted), 50 μM glutamate): < 1 nM; EC50 ([2]; read-out: NMDAR2B B: log EC50 (converted), 50 μM glutamate): < 1 nM; % reduction in float time [5, 8]: 42.4%; Significance vs. vehicle [5, 9]: Yes; % reduction in float time [5, 10]: 49.4%; Significance vs. vehicle [5, 11]: Yes; CSF Cmax [4]: 430.2 ng/mL; Brain Cmax [4]: 1583 ng/mL
CC(=O)N1CCN(Cc2ccccc2)C2(CCNC2=O)C1 (stereo not drawn) [ES-319] | + (<100%=+) | + (<100%=+) | < 1 | < 1 | 1790 | 18.2 | 279 | 2770 | 1.74 | 72 | 6470 | 4760 | 19.8 | % reduction in float time ([5]; 1 wk post-dose, 0.1 mg/kg): 60.5%; Significance vs. vehicle [5, 9]: Yes; % reduction in float time ([5]; 1 h post-dose, 0.1 mg/kg): 76.3%; Significance vs. vehicle [5, 11]: Yes; CSF Cmax [4]: 520 ng/mL; Brain Cmax [4]: 758 ng/mL
CC(=O)N1CCN(Cc2ccccc2)C2(CCNC2=O)C1 (stereo not drawn) [ES-320] | − (−=0) | − (−=0) | – | – | – | – | – | – | – | – | – | – | – | –
CC(C)C(=O)N1CCN(Cc2ccccc2)C2(CCNC2=O)C1 (stereo not drawn) [ES-321] | + (<100%=+) | ++ (>100%=++) | > 1 | < 1 | 577 | 58.6 | 10.2 | 2570 | 0.71 | 16 | 466 | 795 | 15 | –
CC(C)C(=O)N1CCN(Cc2ccccc2)C2(CCNC2=O)C1 (stereo not drawn) [ES-322] | − (−=0) | − (−=0) | – | – | – | – | – | – | – | – | – | – | – | –
C[C@@H](O)[C@H](N)C(=O)N1CCNC2(CCNC2=O)C1 (stereo partly drawn) [ES-335] | – | – | < 1 | < 1 | – | – | – | – | – | – | – | – | – | Emax ([1]; 50 μM glutamate): < 100%; Emax ([2]; 50 μM glutamate): < 100%; % reduction in float time [5, 8]: 72.9%; Significance vs. vehicle [5, 9]: Yes; % reduction in float time [5, 10]: 58.5%; Significance vs. vehicle [5, 11]: Yes
CNCCC(Oc1ccc(C(F)(F)F)cc1)c1ccccc1 (stereo not drawn) [Fluoxetine, fluoxetine, reference compound] | – | – | – | – | – | – | – | – | – | – | – | – | – | Significance vs. vehicle ([5]; positive control, 20 mg/kg, dosed 3 times (24 h, 5 h and 1 h) prior to testing): Yes
